The values that follow come from US20240140943A1, “COMPETITIVE AND NONCOMPETITIVE INHIBITORS OF THE MUSCARINIC ACETYLCHOLINE RECEPTOR M5” (Vanderbilt University, priority 2021, published 2024).

By IC50 is commonly meant the concentration needed to halve the response being measured.

This assay deals with T1, human M5 receptors (hM5) (Homo sapiens, UniProt P08912).
T1 construct: expressed in transfected cells
T1 sequence (P08912 1-532): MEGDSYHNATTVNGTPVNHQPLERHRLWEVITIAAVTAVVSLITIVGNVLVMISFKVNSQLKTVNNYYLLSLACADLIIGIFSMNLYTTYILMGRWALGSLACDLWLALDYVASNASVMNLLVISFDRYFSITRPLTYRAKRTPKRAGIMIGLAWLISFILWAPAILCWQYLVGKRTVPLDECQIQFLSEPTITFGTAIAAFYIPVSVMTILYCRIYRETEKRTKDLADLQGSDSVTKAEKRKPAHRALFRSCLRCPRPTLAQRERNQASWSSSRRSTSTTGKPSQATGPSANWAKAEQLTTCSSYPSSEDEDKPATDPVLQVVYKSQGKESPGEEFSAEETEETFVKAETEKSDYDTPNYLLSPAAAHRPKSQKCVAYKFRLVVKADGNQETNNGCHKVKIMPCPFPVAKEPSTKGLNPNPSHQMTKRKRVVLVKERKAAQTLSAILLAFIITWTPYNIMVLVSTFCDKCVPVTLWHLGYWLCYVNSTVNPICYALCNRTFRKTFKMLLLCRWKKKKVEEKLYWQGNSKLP
As to the kind of experiment: Cell-based functional calcium mobilization assay of mAChR M5 activity. The conditions noted are these: CHO cells stably expressing hM5; for IC50: calcium mobilization, inhibition of EC80 acetylcholine response; for EC80 MIN: minimum response at EC80 acetylcholine addition, normalized to maximum acetylcholine response. Here is the method: All functional cell-based assays were performed essentially as previously described (Mario et al., Mol. Pharm. 2009, 75(3), 577-588; Brady et al., J. Pharm. & Exp. Ther. 2008, 327, 941-953). Initial, single point (10 μM) compound characterization was performed in stable Chinese Hamster Ovary (CHO) cell lines constitutively expressing human M5 receptors. These were plated at 15,000 cells per 20 μL per well in Greiner 384-well black-walled, TC-treated, clear-bottomed plates (Fisher) in Ham's F12 medium supplemented with 10% FBS and 20 mM HEPES. Cells were incubated overnight at 37° C. under 5% CO2. The following day, medium was exchanged with assay buffer (Hank's Balanced Salt Solution supplemented with 20 mM HEPES and 2.5 mM Probenecid, pH 7.4) leaving 20 μL of assay buffer in each well. This was followed by the addition of 20 μL of 2.3 μM of Fluo-4 AM (Invitrogen) in assay buffer (final concentration 1.15 μM). The cells were then incubated 50 minutes at 37° C. under 5% CO2. The assay buffer plus dye was then exchanged with fresh assay buffer leaving a volume of 20 μL in each well. Test compounds were diluted into assay buffer to a 2× (20 μM) concentration in 0.2% dimethylsulfoxide (DMSO) in columns 3-22 with matching DMSO concentration in columns 1, 2, 23, and […]; compounds were added to the assay for a final concentration of 10 μM and a final DMSO concentration of 0.1%. Acetylcholine (Sigma-Aldrich) was prepared to provide 5× concentrations of EC20, EC80, and ECmax in the triple-addition assay, providing a signal window to view agonism, potentiation, and inhibition of the acetylcholine response as well as a means to normalize to the maximum acetylcholine response.
Either an FDSS (Hamamatsu) or Panoptic (WaveFront Biosciences) kinetic imaging plate reader was used for assay execution and measurement of calcium flux. After establishing baseline fluorescence, test compounds (20 μL) were added to the cells using the reader's integrated pipettor and allowed to equilibrate for 140 seconds before addition of the EC20 concentration of acetylcholine (10 μL) along with vehicle in selected DMSO-only wells in the outer two columns. The EC80 concentration of acetylcholine (10 μL) was added 125 seconds after the EC20 addition along with ECmax concentration in the wells receiving vehicle in the second addition. The raw fluorescence data from each well was normalized to the corresponding initial fluorescence reading (static ratio). The maximum fluorescence value following each addition was determined and the minimum value within that same timeframe was subtracted for each well then normalized to the average of the ECmax maximum-minimum response, providing a % AChmax value for each addition for each well. The single point values represent mean values determined within the EC80 addition timeframe obtained from at least three independent determinations performed in triplicate or greater (error bars represent +/−SEM) unless otherwise specified.
Further characterization of test compounds (compound potency and mAChR subtype-selectivity) was performed on the FDSS with calcium mobilization assays performed as previously described (Mario et al., 2009; Brady et al., 2008) and in a format similar to that described above using the same reagents. CHO cells stably expressing hM1, hM2/Gqi5, hM3, hM4/Gqi5, hM5, rM1, rM2/Gqi5, rM3, rM4/Gqi5, or rM5 were plated in the manner described above. A ten-point concentration range of test compound was serial diluted in assay buffer to 2× final concentration and acetylcholine was diluted in assay buffer to 5× of the EC20 and EC80 concentrations, determined empirically and 5× maximal (2 mM final concentration) stock concentrations. FDSS protocols were carried out as described above; the static ratio was calculated and the minimum response subtracted from the maximum response within the timeframe of each addition. This max-min response was then normalized to the maximum acetylcholine response. […]
A general note: Calcium flux is commonly read through the fluorescence of an indicator in the cells.

Consider `Cc1nnc(S(=O)(=O)[C@H]2CC[C@H](c3cn4ncnc4cc3Cl)CC2)s1` [Compound 1, trans-2-((4-(7-chloro-[1,2,4]triazolo[1,5-a]pyridin-6-yl)cyclohexyl)sulfonyl)-5-methyl-1,3,4-thiadiazole], for which the half-maximal inhibitory concentration (IC50) worked out at 185 nM and the “EC80 MIN” value came out at 3%.
On the same counts, the results for `Cc1nnc(S(=O)(=O)[C@H]2CC[C@H](c3cn4ncnc4cc3Cl)CC2)o1` [Compound 2, trans-2-((4-(7-chloro-[1,2,4]triazolo[1,5-a]pyridin-6-yl)cyclohexyl)sulfonyl)-5-methyl-1,3,4-oxadiazole] are 532 nM and 3%.
The corresponding values for `Cc1nnc(S(=O)(=O)[C@H]2CC[C@H](c3cn4ncnc4cc3Cl)CC2)n1C` [Compound 3, trans-7-chloro-6-(4-((4,5-dimethyl-4H-1,2,4-triazol-3-yl)sulfonyl)cyclohexyl)-[1,2,4]triazolo[1,5-a]pyridine] are 33 nM and 2%.
For the molecule `Cc1nnc(S(=O)(=O)[C@H]2CC[C@@H](c3cn4ncnc4cc3C)CC2)o1` [Compound 4, cis-2-methyl-5-((4-(7-methyl-[1,2,4]triazolo[1,5-a]pyridin-6-yl)cyclohexyl)sulfonyl)-1,3,4-oxadiazole], the concentration for half-maximal inhibition (IC50) is over 10000 nM and the “EC80 MIN” value came to 55%.
